Measured values from ChEMBL document CHEMBL2146412, “Antibacterial spirobisnaphthalenes from the North American cup fungus Urnula craterium” (J Nat Prod, 2012).
≈ marks a conversion by molar mass, not a printed value. Calls of active or inactive are those of the source. The rule behind the calls is not given here.

Legend:
[1] = tested on: J774.A1; experiment: Cytotoxicity against mouse J774A1 cells by trypan blue exclusion assay; type: cell-based
[2] = tested on: Staphylococcus aureus; experiment: Antibacterial activity against Staphylococcus aureus ATCC 29213; type: functional
[3] = tested on: Staphylococcus aureus; experiment: Antibacterial activity against methicillin-resistant Staphylococcus aureus MW2; type: functional
[4] = tested on: Enterococcus faecium; experiment: Antibacterial activity against vancomycin-resistant Enterococcus faecium VRE1; type: functional
[5] = tested on: Enterococcus faecalis; experiment: Antibacterial activity against Enterococcus faecalis ATCC 29212; type: functional
[6] = tested on: Streptococcus pyogenes; experiment: Antibacterial activity against Streptococcus pyogenes UWL; type: functional
[7] = tested on: Escherichia coli; experiment: Antibacterial activity against Escherichia coli; type: functional, organism-based
[8] = tested on: Pseudomonas aeruginosa; experiment: Antibacterial activity against Pseudomonas aeruginosa; type: functional, organism-based

SMILES | IC50 [1] [µM] | MIC [2] [µg/mL] | MIC [3] [µg/mL] | MIC [4] [µg/mL] | MIC [5] [µg/mL] | MIC [6] [µg/mL] | Activity [7] | Activity [8]
COc1ccc(C[C@H](N)C(=O)N[C@H]2[C@@H](O)[C@H](n3cnc4c(N(C)C)ncnc43)O[C@@H]2CO)cc1 [PUROMYCIN] | 10 |  |  |  |  |  |  | 
CN(C)[C@@H]1C(O)=C(C(N)=O)C(=O)[C@@]2(O)C(O)=C3C(=O)c4c(O)cccc4[C@@](C)(O)[C@H]3C[C@@H]12 [TETRACYCLINE] |  | 0.25 (≈ 0.563 µM) | 0.125 (≈ 0.281 µM) | 4 (≈ 9 µM) | 16 (≈ 36 µM) | 0.125 (≈ 0.281 µM) |  | 
O=C1C=C[C@]2(O[C@@H]3c4c2ccc(O)c4C(=O)[C@@H]2O[C@H]32)c2cccc(O)c21 [URNUCRATIN A] | > 100 | 2 (≈ 5.74 µM) | 2 (≈ 5.74 µM) | 1 (≈ 2.87 µM) | 0.5 (≈ 1.44 µM) | 0.5 (≈ 1.44 µM) | inactive | inactive
COc1cccc2c1C(=O)C=C[C@]21O[C@@H]2c3c1ccc(O)c3C(=O)[C@@H]1O[C@H]21 [URNUCRATIN B] | > 100 | 8 (≈ 22.1 µM) | 8 (≈ 22.1 µM) | 8 (≈ 22.1 µM) | 8 (≈ 22.1 µM) | 4 (≈ 11 µM) | inactive | inactive
COc1cccc2c1C(=O)C=C[C@]21O[C@@H]2c3c1ccc(O)c3[C@H](O)[C@@H]1O[C@@H]12 [URNUCRATIN C] | > 100 | 64 (≈ 176 µM) | 64 (≈ 176 µM) | 64 (≈ 176 µM) | 64 (≈ 176 µM) | 64 (≈ 176 µM) | inactive | inactive
CN[C@H](CC(C)C)C(=O)N[C@H]1C(=O)N[C@@H](CC(N)=O)C(=O)N[C@H]2C(=O)N[C@H]3C(=O)N[C@H](C(=O)N[C@H](C(=O)O)c4cc(O)cc(O)c4-c4cc3ccc4O)[C@H](O)c3ccc(c(Cl)c3)Oc3cc2cc(c3O[C@@H]2O[C@H](CO)[C@@H](O)[C@H](O)[C@H]2O[C@H]2C[C@](C)(N)[C@H](O)[C@H](C)O2)Oc2ccc(cc2Cl)[C@H]1O [VANCOMYCIN] |  |  |  | 64 (≈ 44.2 µM) | 2 (≈ 1.38 µM) | 1 (≈ 0.69 µM) |  | 
